Measurements reported in ChEMBL document CHEMBL4311994, “New 2,6-diaminopyridines containing a sterically hindered benzylphosphonate moiety in the aromatic core as potential antioxidant and anti-cancer drugs” (Eur J Med Chem, 2019).
Calls of active or inactive are those of the source. No cut-off for these calls is given here.

Tests used:
[1] = tested on: Candida albicans; experiment: Antimicrobial activity against Candida albicans 855-653 by serial dilution method; format: functional
[2] = tested on: Pseudomonas aeruginosa; experiment: Antimicrobial activity against Pseudomonas aeruginosa ATCC 9027 by serial dilution method; format: functional
[3] = tested on: MCF7; experiment: Antiproliferative activity against human MCF7 cells by fluorescence based viable cell counting method; format: functional
[4] = Hemolytic activity in human erythrocytes at 100.0 +/- 7.8 uM incubated for 1 hrs by photometric analysis relative to control; format: ADME, cell-based, Erythrocyte; conditions: read-out: Activity
[5] = tested on: Trichophyton mentagrophytes; experiment: Antimicrobial activity against Trichophyton mentagrophytes var. gypseum 1773 by serial dilution method; format: functional
[6] = tested on: Bacillus cereus; experiment: Antimicrobial activity against Bacillus cereus ATCC 8035 by serial dilution method; format: functional
[7] = Hemolytic activity in human erythrocytes at 50.0 +/- 4.3 uM incubated for 1 hrs by photometric analysis relative to control; format: ADME, cell-based, Erythrocyte; conditions: read-out: Activity
[8] = tested on: Escherichia coli; experiment: Antimicrobial activity against Escherichia coli CDC F-50 by serial dilution method; format: functional
[9] = Hemolytic activity in human erythrocytes at 10.0 +/- 0.8 uM incubated for 1 hrs by photometric analysis relative to control; format: ADME, cell-based, Erythrocyte; conditions: read-out: Activity
[10] = Antioxidant activity assessed as ABAP free radical scavenging activity by measuring decrease in chemiluminescence intensity at 0.25 to 1 mM by luminescence based assay; format: functional
[11] = Cytotoxicity against human Chang cells assessed as reduction in cell viability by fluorescence based viable cell counting method
[12] = tested on: Aspergillus niger; experiment: Antimicrobial activity against Aspergillus niger BKMF 1119 by serial dilution method; format: functional
[13] = tested on: M-HeLa; experiment: Antiproliferative activity against human M-HeLa cells by fluorescence based viable cell counting method; format: functional
[14] = tested on: Staphylococcus aureus; experiment: Antimicrobial activity against Staphylococcus aureus ATCC 209P by serial dilution method; format: functional
[15] = tested on: M-HeLa; experiment: Induction of apoptosis in human M-HeLa cells assessed as increase in Akt expression at IC50 incubated for 24 hrs by luminescence based assay; format: functional, cell-based
[16] = tested on: M-HeLa; experiment: Induction of apoptosis in human M-HeLa cells assessed as increase in caspase 9 expression at IC50 incubated for 24 hrs by luminescence based assay relative to control; format: functional
[17] = tested on: M-HeLa; experiment: Induction of apoptosis in human M-HeLa cells assessed as increase in bcl2 expression at IC50 incubated for 24 hrs by luminescence based assay; format: functional, cell-based
[18] = tested on: M-HeLa; experiment: Induction of apoptosis in human M-HeLa cells assessed as effect on Bad expression at IC50 incubated for 24 hrs by luminescence based assay; format: functional, cell-based
[19] = tested on: M-HeLa; experiment: Induction of apoptosis in human M-HeLa cells assessed as increase in caspase 8 expression at IC50 incubated for 24 hrs by luminescence based assay; format: functional, cell-based
[20] = tested on: M-HeLa; experiment: Induction of apoptosis in human M-HeLa cells assessed as increase in p53 expression at IC50 incubated for 24 hrs by luminescence based assay; format: functional, cell-based
[21] = tested on: M-HeLa; experiment: Induction of apoptosis in human M-HeLa cells assessed as increase in JNK expression at IC50 incubated for 24 hrs by luminescence based assay; format: functional, cell-based
[22] = tested on: PC-3; experiment: Antiproliferative activity against human PC3 cells by fluorescence based viable cell counting method; format: functional
[23] = tested on: A549; experiment: Antiproliferative activity against human A549 cells by fluorescence based viable cell counting method; format: functional
[24] = Homo sapiens, MCF7, read-out: IC50
[25] = Homo sapiens, M-HeLa, read-out: IC50

COP(=O)(OC)C(c1cc(C(C)(C)C)c(O)c(C(C)(C)C)c1)c1ccc(N)cc1N (centres undefined)
MIC [1]: > 500 µM | MIC [2]: > 500 µM | IC50 [3, 24]: > 100 µM | hemolysis at 1 h, 100 uM [4]: 0% | MIC [5]: > 500 µM | MIC [6]: > 500 µM | hemolysis at 1 h, 50 uM [7]: 0% | MIC [8]: > 500 µM | hemolysis at 1 h, 10 uM [9]: 0% | Activity [10]: Active | IC50 ([11]; Homo sapiens, read-out: IC50): > 100 µM | MIC [12]: > 500 µM | IC50 [13, 25]: 45.3 µM | MIC [14]: > 500 µM

CC(C)(C)c1cc(CP(=O)(Oc2ccccc2)Oc2ccccc2)cc(C(C)(C)C)c1O
IC50 [3, 24]: > 100 µM | Activity [10]: Active | IC50 ([11]; Homo sapiens, read-out: IC50): 40 µM | IC50 [13, 25]: 15.6 µM

CC(C)OP(=O)(OC(C)C)C(c1cc(C(C)(C)C)c(O)c(C(C)(C)C)c1)c1ccc(N)cc1N (centres undefined)
MIC [1]: > 500 µM | MIC [2]: > 500 µM | MIC [5]: > 500 µM | MIC [6]: > 500 µM | MIC [8]: > 500 µM | Activity [10]: Active | MIC [12]: > 500 µM | MIC [14]: > 500 µM

CCCOP(=O)(OCCC)C(c1cc(C(C)(C)C)c(O)c(C(C)(C)C)c1)c1ccc(N)nc1N (centres undefined)
IC50 [3, 24]: 32.3 µM | Activity [10]: Active | IC50 ([11]; Homo sapiens, read-out: IC50): 28.1 µM | IC50 [13, 25]: 11.1 µM

CC/C(=C(\c1ccccc1)c1ccc(OCCN(C)C)cc1)c1ccccc1 [TAMOXIFEN]
IC50 ([11]; Homo sapiens, read-out: IC50): 42.1 µM

CC(C)OP(=O)(Cc1cc(C(C)(C)C)c(O)c(C(C)(C)C)c1)OC(C)C
IC50 [3, 24]: 68.2 µM | Activity [10]: Active | IC50 ([11]; Homo sapiens, read-out: IC50): 96 µM | IC50 [13, 25]: 30 µM

CC(C)OP(=O)(OC(C)C)C(c1cc(C(C)(C)C)c(O)c(C(C)(C)C)c1)c1ccc(N)nc1N (centres undefined)
MIC [1]: > 500 µM | MIC [2]: > 500 µM | IC50 [3, 24]: 21.8 µM | hemolysis at 1 h, 100 uM [4]: 0.3% | MIC [5]: > 500 µM | MIC [6]: > 500 µM | hemolysis at 1 h, 50 uM [7]: 0% | MIC [8]: > 500 µM | hemolysis at 1 h, 10 uM [9]: 0% | Activity [10]: Active | IC50 ([11]; Homo sapiens, read-out: IC50): > 100 µM | MIC [12]: > 500 µM | IC50 [13, 25]: 38 µM | MIC [14]: > 500 µM

CC(C)OP(=O)(C=C1C=C(C(C)(C)C)C(=O)C(C(C)(C)C)=C1)OC(C)C
IC50 [3, 24]: 66 µM | Activity [10]: Active | IC50 ([11]; Homo sapiens, read-out: IC50): 22.4 µM | IC50 [13, 25]: 10.1 µM

CCOP(=O)(OCC)C(c1cc(C(C)(C)C)c(O)c(C(C)(C)C)c1)c1ccc(N)nc1N (centres undefined)
MIC [1]: > 500 µM | MIC [2]: > 500 µM | IC50 [3, 24]: 34.2 µM | hemolysis at 1 h, 100 uM [4]: 0% | MIC [5]: > 500 µM | MIC [6]: > 500 µM | hemolysis at 1 h, 50 uM [7]: 0% | MIC [8]: > 500 µM | hemolysis at 1 h, 10 uM [9]: 0% | Activity [10]: Active | IC50 ([11]; Homo sapiens, read-out: IC50): > 100 µM | MIC [12]: > 500 µM | IC50 [13, 25]: 17.1 µM | MIC [14]: > 500 µM

CC(C)(C)c1cc(C(c2ccc(N)nc2N)P(=O)(Oc2ccccc2)Oc2ccccc2)cc(C(C)(C)C)c1O (centres undefined)
Activity [15]: Active | MIC [1]: > 500 µM | MIC [2]: > 500 µM | fold change (FC) [16]: 2 | Activity [17]: Active | IC50 [3, 24]: 16 µM | hemolysis at 1 h, 100 uM [4]: 1.9% | Activity [18]: inactive | MIC [5]: > 500 µM | Activity [19]: inactive | MIC [6]: > 500 µM | hemolysis at 1 h, 50 uM [7]: 0.5% | MIC [8]: > 500 µM | hemolysis at 1 h, 10 uM [9]: 0% | Activity [10]: Active | IC50 ([11]; Homo sapiens, read-out: IC50): 52 µM | MIC [12]: > 500 µM | Activity [20]: Active | Activity [21]: Active | IC50 [13, 25]: 7.4 µM | MIC [14]: > 500 µM

CC(C)(C)c1cc(C(c2ccc(N)cc2N)P(=O)(Oc2ccccc2)Oc2ccccc2)cc(C(C)(C)C)c1O (centres undefined)
MIC [1]: > 500 µM | MIC [2]: > 500 µM | IC50 ([3]; mcf7): Nd(Toxic) | hemolysis at 1 h, 100 uM [4]: 1.9% | MIC [5]: > 500 µM | MIC [6]: > 500 µM | hemolysis at 1 h, 50 uM [7]: 0.9% | MIC [8]: > 500 µM | hemolysis at 1 h, 10 uM [9]: 0% | Activity [10]: Active | IC50 [11]: Nd(Toxic) | MIC [12]: > 500 µM | IC50 ([13]; m-hela): Nd(Toxic) | MIC [14]: > 500 µM

COc1cccc2c1C(=O)c1c(O)c3c(c(O)c1C2=O)C[C@@](O)(C(=O)CO)C[C@@H]3O[C@H]1C[C@H](N)[C@H](O)[C@H](C)O1 [DOXORUBICIN]
IC50 ([11]; Homo sapiens, read-out: IC50): 1.3 µM | IC50 [13, 25]: 3 µM

COP(=O)(C=C1C=C(C(C)(C)C)C(=O)C(C(C)(C)C)=C1)OC
IC50 [3, 24]: > 100 µM | Activity [10]: Active | IC50 ([11]; Homo sapiens, read-out: IC50): 24.1 µM | IC50 [13, 25]: 17.2 µM

CC(C)(C)C1=CC(=CP(=O)(Oc2ccccc2)Oc2ccccc2)C=C(C(C)(C)C)C1=O
IC50 [3, 24]: 38.4 µM | Activity [10]: Active | IC50 ([11]; Homo sapiens, read-out: IC50): 17 µM | IC50 [13, 25]: 14.3 µM

COP(=O)(OC)C(c1cc(C(C)(C)C)c(O)c(C(C)(C)C)c1)c1ccc(N)nc1N (centres undefined)
MIC [1]: > 500 µM | MIC [2]: > 500 µM | IC50 [3, 24]: 31 µM | hemolysis at 1 h, 100 uM [4]: 0% | MIC [5]: > 500 µM | MIC [6]: > 500 µM | Activity [22]: inactive | hemolysis at 1 h, 50 uM [7]: 0% | MIC [8]: > 500 µM | hemolysis at 1 h, 10 uM [9]: 0% | Activity [10]: Active | IC50 ([11]; Homo sapiens, read-out: IC50): > 100 µM | MIC [12]: > 500 µM | Activity [23]: inactive | IC50 [13, 25]: 16.1 µM | MIC [14]: > 500 µM

COP(=O)(Cc1cc(C(C)(C)C)c(O)c(C(C)(C)C)c1)OC
IC50 [3, 24]: > 100 µM | hemolysis at 1 h, 100 uM [4]: 0% | hemolysis at 1 h, 50 uM [7]: 0% | hemolysis at 1 h, 10 uM [9]: 0% | Activity [10]: Active | IC50 ([11]; Homo sapiens, read-out: IC50): > 100 µM | IC50 [13, 25]: 26 µM

CCOP(=O)(OCC)C(c1cc(C(C)(C)C)c(O)c(C(C)(C)C)c1)c1ccc(N)cc1N (centres undefined)
MIC [1]: > 500 µM | MIC [2]: > 500 µM | IC50 [3, 24]: 68.2 µM | hemolysis at 1 h, 100 uM [4]: 0% | MIC [5]: > 500 µM | MIC [6]: > 500 µM | hemolysis at 1 h, 50 uM [7]: 0% | MIC [8]: > 500 µM | hemolysis at 1 h, 10 uM [9]: 0% | Activity [10]: Active | IC50 ([11]; Homo sapiens, read-out: IC50): 54.9 µM | MIC [12]: > 500 µM | IC50 [13, 25]: 39 µM | MIC [14]: > 500 µM
